Measurements from patent US20150283098A1, “PRENYLATED CHALCONE FORMULATION FOR THE TREATMENT OF BEES” (BIOACTIVE-TECH SP. Z O.O., priority 2012, published 2015).

What was measured:
[1] = tested on: Nosema spp. (apis and cerenae); assay: Counting of Nosema cells under a microscope in blended dead bees; format: in vivo
From the text: (§1) (apis and cerenae). It was found on the basis of studies (initial results) that the amount of spores observed under a microscope after the use of Xn decreased by 60% on average in relation to control. Observation under a microscope of blended dead bees was related to counting of Nosema cells in the suspension of distilled water. […] The formulation was also investigated in several bee colonies in apiary infected with Nosemosis.

[2] = tested on: Nosema spp.; assay: Spraying of bee colonies in apiary infected with Nosemosis; format: in vivo; details: several days after spraying with formulation containing xanthohumol
From the text: as §1

[3] = tested on: bees; assay: Example 1: viability of bees in experimental queen cages with high concentration of imidaclopride; format: in vivo; details: 10 mg/l xanthohumol in syrup for three days, then imidaclopride (Kohinor 200 SL) 375 μl/l; controls died in 100%
Procedure: The experiment was carried out in Lublin, Poland in an apiary containing 250 bee colonies.
The influence of xanthohumol concentration in sugar syrup on the viability of bees was studied on samples of 100 bees placed in a special cage for studies, (FIG. 1). The bees were taking a protective formulation for three days in the form of xanthohumol dissolved in standard sugar syrup in three concentrations: 5, 10 and 20 mg of xanthohumol/1, respectively. Each concentration was studied in three independent small hives. After three days of taking the protective formulation, the bees received imidaclopride (in Kohinor 200 SL) in a concentration of 375 μl/l in a […] (similar doses are used for controlling of insects in vegetable cultivations). As a control group, three small hives of 100 bees each were used, which were not fed with xanthohumol containing preparation. All xanthohumol concentrations and the control group were studied in thriplicate. Xanthohumol obtained by chromatographic method from hop post-extraction waste was used. The purity of the preparation was ˜99% (FIG. 3).

[4] = tested on: bees; assay: Example 2: viability and behaviour of bees in apiary hives with low concentration of imidaclopride spray; format: in vivo
Procedure: Similar studies as described in example 1 were carried out in three bee hives containing ˜40,000 bees. Frames with bees (FIG. 4) were sprayed with imidaclopride dissolved in water at a concentration of 125 μl/l (microlitres per litre). It is a half of imidaclopride concentration in Kohinor 200 SL used in cultivation of vegetables in soil. The purpose of the study was to investigate low doses of imidaclopride to which mainly are exposed the bees collecting nectar during agrotechnological procedures.
The bees were studied in two groups. […] The studied group were bees which were given protective xanthohumol preparation in […] (milligram per litre) syrup for one week and then treated with imidaclopride spray at the above mentioned concentration (FIGS. 6A, 6B and 6C).

[5] = tested on: bees; assay: Example 3: viability of bee colonies poisoned with thiamethoxam (Actara) after xanthohumol spray; format: in vivo
Procedure: The experiment was carried out in Loma-Zawady Przedmieście, Poland in an apiary consisting of 25 colonies based in hives of Dadant type (frame 435×300 mm). The hives had wire-net, detachable bottom in the form of a diagnostic tray. The nest body of the hives consisted of 10 frames.
Bee colonies in the form of separated colonies were purchased from local producer. Each separated colony consisted of 3 frames of brood and frames with supply of bee bread and honey. All frames were settled in “black” by bees.
The experiments were carried out on 25 swarms of bees divided into VI groups. Groups I to V, consisted of 4 hives, each.
In groups I-V, xanthohumol at the concentration of 40 mg/l was used as a protective formulation. Actara at the concentration of 0.4 g/l was used for poisoning of insects (the concentration used in spraying of beetle).
Group IV—bee colonies treated with the protective preparation in the form of spray. Poisoning with Actara by alimentary route. 20 mg of xanthohumol were dissolved in 1 ml of ethyl alcohol and subsequently added to 0.5 l of sugar syrup in water in a ration 1:1 and four hives were sprayed with spraying machine so that one bee colony received a dose of 5 mg of xanthohumol. Poisoning with Actara given with 1:1 syrup (1 kg of sugar+1 l of water).
Group V—bee colonies treated with the protective preparation in the form of spray. Poisoning with Actara by contact route. 20 mg of xanthohumol were dissolved in 1 ml of ethyl alcohol and subsequently added to 0.5 l of sugar syrup in water in a ratio 1:1 and four hives were sprayed with the spraying machine so that one bee colony received a dose of about 5 mg of xanthohumol. Poisoning was carried out in the form of small-molecule spraying which was used for each frame with bees.
In this group, a formulation of different xanthohumol concentrations was used, and Actara (thiametoxam 25%) for poisoning of bees, at a dose of 0.2 g/l (concentration used by fruit farmers) was used. The control group were bees subjected only to spraying procedure with Actara.
Group VI a)—bees were protected with the formulation of xanthohumol concentration of 0.08 mg/l.
0.01 mg of xanthohumol was dissolved in 1 ml of ethyl alcohol and subsequently added to 0.125 l of sugar syrup in water in a ratio 1:1 and 1 hive was sprayed so that one a bee colony received a dose of about 0.01 mg of xanthohumol. After 24 hours, the bee colony was poisoned by a contact route. The poisoning was carried out in the form of small-molecule spraying which was used for each frame with bees.
Group VI b)—the bees were protected with the preparation of xanthohumol in concentration 1.6 mg/l.
0.2 mg of xanthohumol was dissolved in 1 ml of ethyl alcohol and subsequently added to 0.125 l of sugar syrup in water in a ratio 1:1 and 1 hive was sprayed so that one bee colony received a dose of about 0.2 mg of xanthohumol. After 24 hours, the bee colony was poisoned by the contact route. Poisoning was carried out in the form of small-molecule spraying which was applied on each frame with the bees.
Group VI c)—the bees were protected with a formulation of xanthohumol in concentration 16 mg/l.
2 mg of xanthohumol dissolved in 1 ml of ethyl alcohol which was added to 0.125 l of sugar syrup in water in a ration of 1:1 in duplicate and it was sprayed on 2 hives so that one bee colony received a dose of about 2 mg of xanthohumol. After 24 hours, the bee colonies were poisoned by the contact route. The poisoning was carried out if the form of a small-molecule spray which was applied on each frame with bees.
Group VI d)—the bees were protected with a preparation of xanthohumol concentration 8 g/1.
1 g of xanthohumol dissolved in 10 ml of ethyl alcohol which was then added to 0.125 l of sugar syrup in water in a ratio 1:1 and it was sprayed on 1 hive so that one bee colony received a dose of about 1000 mg of xanthohumol (1 hive). After 24 hours bee colony was poisoned by a contact route. […]

[6] = tested on: bees; assay: Example 3: effect of xanthohumol formulation itself on bee colonies (vigour, hygienic instinct, toxicity); format: in vivo
Procedure: Group III—bee colonies treated with the protective formulation in the form of spray without poisoning with Actara. 20 mg of xanthohumol were dissolved in 1 ml of ethyl alcohol and subsequently added to 0.5 l of sugar syrup in water in a ratio of 1:1, and four hives were sprayed with use of a spraying machine so that one bee colony received a dose of about 5 mg of xanthohumol. Actara was not used in this experiment.
1 g of xanthohumol dissolved in 10 ml of ethyl alcohol which was then added to 0.125 l of sugar syrup in water in a ratio 1:1 and it was sprayed on 1 hive so that one bee colony received a dose of about 1000 mg of xanthohumol (1 hive). After 24 hours bee colony was poisoned by a contact route. Poisoning was carried out in the form of small-molecule spray which was applied on each frame with bees.

[7] = tested on: virus of sacbrood disease and mycosis and Nosemosis; assay: Other studies in Poland: colonies with sacbrood disease, mycosis and Nosemosis; format: in vivo, bees; details: 5 mg per one bee colony
Procedure: The studies prowed that the formulation containing xanthohumol (at a dose of 5 mg per one bee colony) may be used also for the treatment of the virus of sacbrood disease and mycosis and Nosemosis. […] The increased hygienic instinct was shown by studies carried out on bee colonies by a dozen of beekeepers in Poland.

[8] = tested on: bees; assay: Stocking of a hive contaminated with a pesticide with a protected colony; format: in vivo; details: xanthohumol in syrup 2 g/l by spray; unprotected colony collapsed
From the text: Furthermore, it was found on the basis of the studies with the use of the formulation according to the invention, that there is a possibility of rehabilitating the protected bees in these regions which were contaminated by pesticides, where it has not been possible so far. In the hive where a control bee colony unprotected with the preparation was stocked with new unprotected colony, it collapsed within a short time. A hive contaminated with a pesticide is poisonous for bees even after several weeks.

[9] = tested on: focal ischaemia caused by MCAO in rats; details: cited from earlier work
[10] = cited from earlier work

## COc1cc(O)c(CC=C(C)C)c(O)c1C(=O)/C=C/c1ccc(O)cc1 [xanthohumol]
[1]; after the use of Xn, on average, initial results
  decrease of amount of Nosema spores observed under a microscope in relation to control: 60%
[1]; after using the formulation for 1 week, bees without Xn 30±3
  number of Nosema pieces in suspension of blended dead bees: 8±2 pieces
[2]
  typical symptoms of Nosema spp. infection (soiling of frames and front wall of the hive with feces): disappeared
[3]
  viability of bees: ~45%
[4]; two weeks after the administration of imidaclopride
  behaviour of bees: did not show any differences in behaviour compared to the healthy hives
[4]; xanthohumol 10 mg/ml (milligram per litre) syrup for one week, then imidaclopride spray 125 μl/l
  bees died: ~10%
[4]; xanthohumol syrup one week, imidaclopride spray 125 μl/l
  time from spraying until bees started to fly to the pasture and bring pollen: Three
[5]; Group IV: xanthohumol 40 mg/l spray, Actara 0.4 g/l alimentary route after 24 hours
  losses of bees: 35%
[5]; Group IV: xanthohumol 40 mg/l, Actara 0.4 g/l alimentary route
  memory / flights for pollen of surviving colonies: did not lose memory
[5]; Group V: xanthohumol 40 mg/l spray, Actara 0.4 g/l contact route after 24 hours
  losses of bees: 10%
[5]; Group V: xanthohumol 40 mg/l, Actara 0.4 g/l contact route
  memory / flights for pollen of surviving colonies: did not lose memory and carried pollen
[5]; Group VI a survivors, a week after post-poisoning spraying with xanthohumol 1.6 mg/l, dose of 2 mg
  behaviour of the colony: returned to normal
[5]; Group VI a survivors, sprayed after poisoning with xanthohumol 1.6 mg/l, dose of 2 mg
  time until bees restarted flights around the hive: 48 h
[5]; Group VI a: xanthohumol 0.08 mg/l (0.01 mg per colony), Actara 0.2 g/l contact after 24 hours
  part of bee colony that did not survive: 60%
[5]; Group VI a: xanthohumol 0.08 mg/l, Actara 0.2 g/l
  restart of flights for pollen by surviving bees: did not restart flights for pollen either after 24 hours or 48 hours
[5]; Group VI b: xanthohumol 1.6 mg/l (0.2 mf per colony), Actara 0.2 g/l contact
  part of bee colony that did not survive: about 40%
[5]; Group VI b: xanthohumol 1.6 mg/l, Actara 0.2 g/l
  time until surviving bees restarted flights for pollen: 48 h
[5]; Group VI c: seven days from poisoning
  symptoms of poisoning: do not show any symptoms of poisoning
[5]; Group VI c: xanthohumol 16 mg/l (2 mg per colony), Actara 0.2 g/l contact
  survival of bees: almost all bees survived
[5]; Group VI c: xanthohumol 16 mg/l, Actara 0.2 g/l
  time until surviving bees restarted flights for pollen: 24 h
[5]; Group VI d: after seven days
  symptoms of poisoning: did not show any symptoms of poisoning
[5]; Group VI d: xanthohumol 8 g/l (1 g per colony), Actara 0.2 g/l
  losses of bees: 10%
[5]; Group VI d: xanthohumol 8 g/l (1 g per colony), Actara 0.2 g/l contact after 24 hours
  bees survived: 90%
[6]; Group III: spray, xanthohumol 40 g/l, about 5 mg per colony, no Actara
  behaviour and hygienic instinct of bee colony: improved the behaviour of bee colony and significantly influenced hygienic instinct of a bee
[6]; Group III: spray, xanthohumol 40 g/l, no Actara, not observed in control hives
  Varroa destructor mites on the diagnostic tray: Dead mites Varroa destructor were also observed
[6]; Group VI a: 0.01 mg xanthohumol per colony
  symptoms increasing the vigour: no symptoms increasing the vigour
[6]; Group VI d: 1 gram per hive (8 g/l), inspected 24 hours after use, before poisoning
  toxic effects of xanthohumol preparation on bees: did not cause any toxic effects
[6]; all studied concentrations of xanthohumol, compared to control hives
  movement of bees at the beehive entrance: increased movement of bees was observed at the beehive entrance
[6]; first half of August, hives protected with the preparation
  brooding of bee mothers compared with the control: significant increase
[7]
  effect in colonies with mycosis and Nosemosis: fast purification of the nest from dead insects occurred
  effect in colonies with sacbrood disease: the colony started to work
[8]
  fate of protected colony put into pesticide-contaminated hive: still lived and did not show symptoms of poisoning
[9]
  area of brain ischaemic necrosis: significantly decreased
[10]
  water solubility: poor
